Experiments:
γD-crystallin (γDC) = biological target: T1, γD-crystallin (γDC) (Homo sapiens, UniProt P07320); assay: AGE formation (CML, CEL) in glycated recombinant γD-crystallin; format: biochemical; settings: γDC 2 mg/mL pretreated with 1.25 mM aggrelyte-2 for 24 h, glycating mixture 5 days
T1 sequence (P07320 1-174): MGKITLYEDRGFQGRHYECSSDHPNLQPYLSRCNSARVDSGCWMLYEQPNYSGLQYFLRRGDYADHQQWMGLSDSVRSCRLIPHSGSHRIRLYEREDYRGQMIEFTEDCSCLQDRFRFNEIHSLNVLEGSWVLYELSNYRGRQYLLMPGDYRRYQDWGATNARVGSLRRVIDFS
Procedure: (§1) To investigate the effects of Aggrelyte-2 on advanced glycation end product (AGE) formation, human recombinant αAC (3 mg/mL) or γD-crystallin (γDC, 2 mg/mL) in PBS was treated with or without aggrelyte-2 (10 mM for αAC and 1.25 mM for γDC) for 24 h, dialyzed against 100 mM sodium phosphate buffer pH 7.4 for 16 h and incubated with or without a glycating mixture (2 mM ascorbate, 25 mM D-glucose and 250 μM methylglyoxal) in 100 mM sodium phosphate buffer pH 7.4 for 5 days (after adding 0.002% sodium azide) at 37° C. The incubated proteins were dialyzed against PBS for 16 h, treated with 100 mM sodium borohydride for 1 h at room temperature, and acid hydrolyzed. Two AGEs, N^−-carboxymethyllysine (CML) and N^□-carboxyethyllysine (CEL), were measured by LC-MS/MS as described above. Each sample was separately processed 3-4 times.

αA-crystallin (αAC) = biological target: T2, αA-crystallin (αAC) (Homo sapiens, UniProt P02489); assay: Relative protein acetylation capability on recombinant αAC; format: biochemical; settings: 500 μM acetylating agent, αAC 3 mg/mL, 24 hours, 37° C.
T2 sequence (P02489 1-173): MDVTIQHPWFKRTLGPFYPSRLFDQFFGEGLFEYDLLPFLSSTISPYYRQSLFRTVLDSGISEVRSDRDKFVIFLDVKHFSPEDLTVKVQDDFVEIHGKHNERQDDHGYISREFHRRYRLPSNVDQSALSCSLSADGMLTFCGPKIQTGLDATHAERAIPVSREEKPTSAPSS
Procedure: The relative ability of Aggrelyte-2 to acetylate lysine residues in proteins was investigated using αA-crystallin (αAC). Human recombinant αAC (3 mg/mL PBS) was incubated in 50 mM sodium phosphate buffer, pH 7.4, for 24 hours at 37° C. while shaking without or with 500 μM acetylating agent (Aggrelyte-2, acetyl-CoA, acetic anhydride, or aspirin), dialyzed against PBS for 24 hours at 4° C.

human lenses [1] = assay: AcK in WS cortical and nuclear fractions of treated human lenses (LC-MS/MS); settings: 1 mM, 72 h, vs untreated controls
Procedure: (§2) Mouse and human lenses were treated with aggrelytes as described in Example 10. Water-soluble proteins from mouse and human lenses were obtained as described in Example 13. Effects of aggrelyte treatment on AcK-bearing proteins in the WS fractions were evaluated by LC-MS/MS analysis as described in Example 6.

mouse lenses [2] = assay: Acetylated proteins in ex vivo treated mouse lenses (Western blot, Example 19); settings: 1 mM, 24 hours
Procedure: The lenses from Example 18 were homogenized using N2-bubbled 50 mM phosphate buffer, pH 7.4 (0.4 mL per lens), in a hand-held motorized homogenizer. The homogenate was centrifuged at 20,000×g for 20 minutes at 4° C. The resulting supernatant was collected, and its protein content was measured using BCA Protein Assay Kit using BSA as the standard. The soluble protein was subjected to 12% SDS-PAGE under denaturing conditions and the proteins were electrophoretically transferred to a nitrocellulose membrane and blocked with 5% nonfat dry milk. The membrane was then incubated with a monoclonal antibody against N-acetyllysine (AcK antibody @ 1:5,000 dilution; Cell Signaling Technology Catalog #9681S) for 16 hours, followed by horseradish peroxidase (HRP)-conjugated goat anti-mouse IgG (1:5,000 dilution; Cell Signaling Technology Catalog #7076S) for 1 hour. Chemiluminescence was detected using the Enhanced Chemiluminescence Detection Kit. The membrane was stained with Ponceau-S to visualize the proteins and normalize acetyllysine (AcK)-bearing protein to total protein load.

human recombinant αAC = biological target: T3, human recombinant αAC (Homo sapiens, UniProt P02489); assay: AGE formation (CML, CEL) in glycated recombinant αAC; format: biochemical; settings: αAC 3 mg/mL pretreated with 10 mM aggrelyte-2 for 24 h, glycating mixture 5 days
T3 sequence (P02489 1-173): T2 sequence (P02489 1-173)
Procedure: as §1

human lenses [3] = assay: Stiffness of ex vivo human lenses (Example 22); settings: 250 μM, 48 hours, ex vivo human lenses (47-67 years)
Procedure: To test the effects of Aggrelyte-2 and Aggrelyte-2A on human lenses (age: 47-67 years), lenses were incubated in media containing freshly dissolved aggrelyte (250 μM) for 48 hours, with aggrelyte replacement after 24 hours. One lens from each donor pair was treated with aggrelyte, while the other was used as the control. After incubation, lens stiffness was measured, as described above in Example 20.

mouse lenses [4] = assay: AcK in WS fraction of treated mouse lenses (LC-MS/MS); settings: 1 mM, 24 hours, vs untreated controls and Aggrelyte-2C (p<0.0001)
Procedure: as §2

levels of both CML and CEL (AGEs) after glycation (γD-crystallin (γDC)): significantly reduced (p<0.0001)
levels of both CML and CEL (AGEs) after glycation (human recombinant αAC): significantly reduced (p<0.0001)
SMILES: COC(=O)[C@H](CSC(C)=O)NC(C)=O [Aggrelyte-2, N,S-diacetyl-L-cysteine methyl ester]
rank order of acetylating agents (αA-crystallin (αAC)): followed by Aggrelyte-2, aspirin, and acetyl-CoA
AcK content, cortical protein fraction (LC-MS/MS) (human lenses [1]): Significantly higher (p<0.05)
AcK, nuclear fraction (LC-MS/MS) (human lenses [1]): not statistically greater
density of acetyl-bearing proteins, fold increase compared to untreated control lenses (mouse lenses [2]): 2 fold
effect on lens stiffness (human lenses [3]): no effect on stiffness
AcK modifications in WS proteins (LC-MS/MS) (mouse lenses [4]): significantly higher AcK modifications
